Experimental data reported in US12065654B2, “Plants having increased tolerance to herbicides” (BASF SE, priority 2014, dated 2024).

Experiments:
Chlamydomonas HPPD1 = assay: HPPD activity assay; format: biochemical, Chlamydomonas reinhardtii; conditions: HPPD enzyme Chlamydomonas HPPD1;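 note: reaction started with 4-HPP at 0.05 mM after 30 min preincubation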
Method: (§1) The activity assay for HPPD is based on the analysis of homogentisic acid by reversed phase HPLC.
(§2) The assay mixture can contain 150 mM potassium phosphate buffer pH 7.0, 50 mM L-ascorbic acid, 100 μM Catalase (Sigma-Aldrich), 1 μM FeSO4 and 0.2 units of purified HPPD enzyme in a total volume of 505 μl. 1 unit is defined as the amount of enzyme that is required to produce 1 nmol of HGA per minute at 20° C.
(§3) The reaction is allowed to proceed for 45 min at room temperature. The reaction is stopped by the addition of 50 μl of 4.5 M phosphoric acid. The sample is filtered using a […] pore size PVDF filtration device. 5 μl of the cleared sample is analyzed on an UPLC HSS T3 column (particle size 1.8 μm, dimensions 2, 1×50 mm; Waters) by isocratic elution using 90% 20 mM NaH2PO4 pH 2.2, 10% methanol (v/v).
(§4) HGA is detected electrochemically at 750 mV (mode: DC; polarity: positive) and quantified by integrating peak areas (Empower software; Waters).
(§5) Inhibitors are dissolved in DMSO (dimethylsulfoxide) to a concentration of 0.5 mM. From this stock solution serial five-fold dilutions are prepared in DMSO, which are used in the assay. The respective inhibitor solution accounts for 1% of the assay volume. Thus, final inhibitor concentrations range from 5 μM to 320 pM, respectively. Activities are normalized by setting the uninhibited enzyme activity to 100%. IC50 values are calculated using non-linear regression.
Using methods which are described in the above examples or well known in the art, purified recombinant wild-type HPPD enzymes are characterized with respect to their kinetic properties and sensitivity towards HPPD inhibiting herbicides. Apparent michaelis constants (Km) and maximal reaction velocities (Vmax) are calculated by non-linear regression with the software GraphPad Prism 5 (GraphPad Software, La Jolla, USA) using a substrate inhibition model. […] Weighted means (by standard error) of Km and IC50 values are calculated from at least three independent experiments. The Cheng-Prusoff equation for competitive inhibition (Cheng, Y. C.; Prusoff, W. H. Biochem Pharmacol 1973, 22, 3099-3108) is used to calculate dissociation constants (Ki).
(§6) Field performance of the HPPD enzyme, which is used as a herbicide tolerance trait may depend not only on its lack of sensitivity towards HPPD inhibiting herbicides but also on its activity. To assess the potential performance of a herbicide tolerance trait a tolerance index (TI) is calculated using the following formula: […]
Easy comparison and ranking of each trait is enabled by normalizing tolerance indexes on Arabidopsis wild-type HPPD.

Hordeum HPPD R309K = molecular target: T1, Hordeum HPPD R309K (Hordeum vulgare, UniProt O48604, A164G/R146V/R147D/R148G/R309K); assay: HPPD activity assay, mutant; format: biochemical; conditions: Hordeum HPPD variant R309K; normalized on wild-type
T1 construct: subcloned into a modified pET24D (Novagen) expression vector resulting in N-terminally His-tagged expression constructs; His tag (N); made in house; host or cells: E. coli BL21 (DE3)
Method: as §1, §2, §3, §4, §5
(§7) Purified, mutant HPPD enzymes are obtained by the methods described above. Dose response and kinetic measurements are carried out using the described HPPD activity assay. Apparent michaelis constants (Km) and maximal reaction velocities (Vmax) are calculated by non-linear regression with the software GraphPad Prism 5 (GraphPad Software, La Jolla, USA) using a substrate inhibition model. […] Weighted means (by standard error) of K. and IC50 values are calculated from at least three independent experiments. The Cheng-Prusoff equation for competitive inhibition (Cheng, Y. C.; Prusoff, W. H. Biochem Pharmacol 1973, 22, 3099-3108) is used to calculate dissociation constants (Ki).
as §6, with “of the optimized HPPD enzyme,” for “of the HPPD enzyme,”
(§8) Easy comparison and ranking of each trait is enabled by normalizing tolerance indexes on the respective wild-type HPPD.

[1] = molecular target: T2, Hordeum HPPD L353M, P321R, L320N (Hordeum vulgare, UniProt O48604, L320N/L353M/P321R); assay: HPPD activity assay, mutant; format: biochemical; conditions: Hordeum HPPD variant L353M, normalized on wild-type
T2 construct: His-tag (N); made in house; host or cells: E. coli BL21 (DE3)
Method: as §1, §2, §3, §4, §5, §7
as §6, with “of the optimized HPPD enzyme,” for “of the HPPD enzyme,”
as §8

Hordeum HPPD L320H = molecular target: T3, Hordeum HPPD L320H (Hordeum vulgare, UniProt O48604, A164G/L320H/R146V/R147D/R148G); assay: HPPD activity assay, mutant; format: biochemical; conditions: Hordeum HPPD variant L320H; normalized on wild-type;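 note: reaction started with 4-HPP at 0.05 mM after 30 min preincubation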
T3 construct: His-tag (N); made in house; host or cells: E. coli BL21 (DE3)
Method: as §1, §2, §3, §4, §5, §7
as §6, with “of the optimized HPPD enzyme,” for “of the HPPD enzyme,”
as §8

Hordeum HPPD L320N = molecular target: T4, Hordeum HPPD L320N (Hordeum vulgare, UniProt O48604, A164G/L320N/R146V/R147D/R148G); assay: HPPD activity assay, mutant; format: biochemical; conditions: Hordeum HPPD variant L320N; normalized on wild-type;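 note: reaction started with 4-HPP at 0.05 mM after 30 min preincubation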
T4 construct: His-tag (N); made in house; host or cells: E. coli BL21 (DE3)
Method: as §1, §2, §3, §4, §5, §7
as §6, with “of the optimized HPPD enzyme,” for “of the HPPD enzyme,”
as §8

[2] = molecular target: T5, Hordeum HPPD L320H, P321A (Hordeum vulgare, UniProt O48604, L320H/P321A); assay: HPPD activity assay, mutant; format: biochemical; conditions: Hordeum HPPD variant L320H, normalized on wild-type
T5 construct: His-tag (N); made in house; host or cells: E. coli BL21 (DE3)
Method: as §1, §2, §3, §4, §5, §7
as §6, with “of the optimized HPPD enzyme,” for “of the HPPD enzyme,”
as §8

Hordeum HPPD F404L = molecular target: T6, Hordeum HPPD F404L (Hordeum vulgare, UniProt O48604, A164G/F404L/R146V/R147D/R148G); assay: HPPD activity assay, mutant; format: biochemical; conditions: Hordeum HPPD variant F404L; normalized on wild-type
T6 construct: subcloned into a modified pET24D (Novagen) expression vector resulting in N-terminally His-tagged expression constructs; His tag (N); made in house; host or cells: E. coli BL21 (DE3)
Method: as §1, §2, §3, §4, §5, §7
as §6, with “of the optimized HPPD enzyme,” for “of the HPPD enzyme,”
as §8

Hordeum HPPD L320Q = molecular target: T7, Hordeum HPPD L320Q (Hordeum vulgare, UniProt O48604, A164G/L320Q/R146V/R147D/R148G); assay: HPPD activity assay, mutant; format: biochemical; conditions: Hordeum HPPD variant L320Q; normalized on wild-type
T7 construct: His-tag (N); made in house; host or cells: E. coli BL21 (DE3)
Method: as §1, §2, §3, §4, §5, §7
as §6, with “of the optimized HPPD enzyme,” for “of the HPPD enzyme,”
as §8

Hordeum HPPD L334E = molecular target: T8, Hordeum HPPD L334E (Hordeum vulgare, UniProt O48604, A164G/L334E/R146V/R147D/R148G); assay: HPPD activity assay, mutant; format: biochemical; conditions: Hordeum HPPD variant L334E; normalized on wild-type;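 note: reaction started with 4-HPP at 0.05 mM after 30 min preincubation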
T8 construct: His-tag (N); made in house; host or cells: E. coli BL21 (DE3)
Method: as §1, §2, §3, §4, §5, §7
as §6, with “of the optimized HPPD enzyme,” for “of the HPPD enzyme,”
as §8

[3] = molecular target: T9, Hordeum HPPD L353M, P321R, L320Q (Hordeum vulgare, UniProt O48604, L320Q/L353M/P321R); assay: HPPD activity assay, mutant; format: biochemical; conditions: Hordeum HPPD variant L353M, normalized on wild-type;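 note: reaction started with 4-HPP at 0.05 mM after 30 min preincubation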
T9 construct: His-tag (N); made in house; host or cells: E. coli BL21 (DE3)
Method: as §1, §2, §3, §4, §5, §7
as §6, with “of the optimized HPPD enzyme,” for “of the HPPD enzyme,”
as §8

T3 sequence (O48604 whole entry R146V/R147D/R148G/A164G/L320H): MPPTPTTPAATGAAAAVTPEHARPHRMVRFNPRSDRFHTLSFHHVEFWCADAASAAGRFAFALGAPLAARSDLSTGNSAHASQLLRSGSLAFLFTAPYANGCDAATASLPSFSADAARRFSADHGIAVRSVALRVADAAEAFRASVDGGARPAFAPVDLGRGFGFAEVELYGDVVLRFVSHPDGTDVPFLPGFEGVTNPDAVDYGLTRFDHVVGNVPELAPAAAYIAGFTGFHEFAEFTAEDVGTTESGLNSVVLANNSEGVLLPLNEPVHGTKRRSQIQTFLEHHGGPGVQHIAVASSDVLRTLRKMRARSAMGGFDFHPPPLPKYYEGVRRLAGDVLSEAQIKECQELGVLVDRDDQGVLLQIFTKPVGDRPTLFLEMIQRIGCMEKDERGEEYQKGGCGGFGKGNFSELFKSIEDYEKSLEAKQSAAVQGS
T2 sequence (O48604 whole entry R146V/R147D/R148G/A164G/L320N/P321R/L353M): as the sequence (O48604 whole entry R146V/R147D/R148G/A164G/L320H) above, with H320N, P321R, L353M counted along it
T8 sequence (O48604 whole entry R146V/R147D/R148G/A164G/L334E): as the sequence (O48604 whole entry R146V/R147D/R148G/A164G/L320H) above, with H320L, L334E counted along it
T1 sequence (O48604 whole entry R146V/R147D/R148G/A164G/R309K): as the sequence (O48604 whole entry R146V/R147D/R148G/A164G/L320H) above, with R309K, H320L counted along it
T7 sequence (O48604 whole entry R146V/R147D/R148G/A164G/L320Q): as the sequence (O48604 whole entry R146V/R147D/R148G/A164G/L320H) above, with H320Q counted along it
T4 sequence (O48604 whole entry R146V/R147D/R148G/A164G/L320N): as the sequence (O48604 whole entry R146V/R147D/R148G/A164G/L320H) above, with H320N counted along it
T6 sequence (O48604 whole entry R146V/R147D/R148G/A164G/F404L): as the sequence (O48604 whole entry R146V/R147D/R148G/A164G/L320H) above, with H320L, F404L counted along it
T9 sequence (O48604 whole entry R146V/R147D/R148G/A164G/L320Q/P321R/L353M): as the sequence (O48604 whole entry R146V/R147D/R148G/A164G/L320H) above, with H320Q, P321R, L353M counted along it
T5 sequence (O48604 whole entry R146V/R147D/R148G/A164G/L320H/P321A): as the sequence (O48604 whole entry R146V/R147D/R148G/A164G/L320H) above, with P321A counted along it

SMILES | TI normalized to Arabidopsis HPPD (Chlamydomonas HPPD1) | Normalized tolerance index (TI) (Hordeum HPPD R309K) | Normalized tolerance index (TI) [1] | Normalized tolerance index (TI) (Hordeum HPPD L320H) | Normalized tolerance index (TI) (Hordeum HPPD L320N) | Normalized tolerance index (TI) [2] | Normalized tolerance index (TI) (Hordeum HPPD F404L) | Normalized tolerance index (TI) (Hordeum HPPD L320Q) | Normalized tolerance index (TI) (Hordeum HPPD L334E) | Normalized tolerance index (TI) [3]
CS(=O)(=O)c1ccc(C(=O)C2C(=O)CCCC2=O)c([N+](=O)[O-])c1 [Inhibitor 2, 2-(4-methylsulfonyl-2-nitro-benzoyl)cyclohexane-1,3-dione] | 0.1 | 1.3 | 0.4 | 1.2 | 0.3 | 3.5 | 0.9 | 0.3 | 4 | 2.2
COCCOCc1nc(C(F)(F)F)ccc1C(=O)C1=C(O)C2CCC(C2)C1=O (stereo not shown) [Inhibitor 3, 2-hydroxy-3-[2-(2-methoxyethoxymethyl)-6-(trifluoromethyl)pyridine-3-carbonyl]bicyclo[3.2.1]oct-2-en-4-one] | 0.1 | 2.5 | 0.6 | 3 | 1.2 | 2.5 | 0.4 | 1.1 | 1.2 | 0.6
CS(=O)(=O)c1ccc(C(=O)C2C(=O)CCCC2=O)c(Cl)c1COCC(F)(F)F [Inhibitor 4, 2-[2-chloro-4-methylsulfonyl-3-(2,2,2-trifluoroethoxymethyl)benzoyl]cyclohexane-1,3-dione] | 0.1 | 4.6 | 2.2 | 5.1 | 1.5 | 4.3 | 1.2 | 1 | 2.1 | 1.3
Cc1c(C(=O)c2cnn(C)c2O)ccc(S(C)(=O)=O)c1C1=NOCC1 [Inhibitor 1, [3-(4,5-dihydroisoxazol-3-yl)-2-methyl-4-methylsulfonyl-phenyl]-(5-hydroxy-1-methyl-pyrazol-4-yl)methanone] | 1.7 | 1.5 | 2.6 | 5.4 | 1.3 | 5.1 | 3 | 1.2 | 3.6 | 5.3
